Data from patent publication US9308215B2, “Avermectins and milbemycins as anti-mycobacterial agents” (priority 2013, dated 2016).
Values after ≈ are worked out from the molar mass of the structure shown. Where two headings read alike, the source gives them in different places.

Tested on: M. tuberculosis
Experiment: microbe, parasite or virus in culture
Format: cell-based, Mycobacterium tuberculosis
Conditions: resistance profile INH; for MIC90: Mycobacterium tuberculosis
[1] = read-out: In vitro MIC90, strain BC-MDR2, RIF, PZA, SM, RBT
[2] = read-out: In vitro MIC90, strain BC-MDR3, RIF, RBT
[3] = read-out: In vitro MIC90, strain BC-MDR4, RIF, EMB, PZA, RBT
[4] = read-out: In vitro MIC90, strain BC-MDR5, RIF, PZA, SM, PAS, RBT
[5] = read-out: In vitro MIC90, strain CI5058, RIF
[6] = read-out: In vitro MIC90, strain CI5072, RIF, SM
[7] = read-out: In vitro MIC90, strain CI5297
[8] = read-out: In vitro MIC90, strain CI5305
[9] = read-out: In vitro MIC90, strain CI5324, RIF
[10] = read-out: In vitro MIC90, strain CI5358, EMB, ETH
[11] = read-out: In vitro MIC90, strain CI5400, RIF
[12] = read-out: In vitro MIC90, strain CI5447
[13] = read-out: In vitro MIC90, strain CI5459, EMB, ETH
[14] = read-out: In vitro MIC90, strain CI12081, RIF, SM, EMB, ETH
[15] = read-out: In vitro MIC90, strain KZN5, RIF, SM, EMB, ETH, KM, PZA
[16] = read-out: In vitro MIC90, strain KZN6, RIF, SM, EMB, ETH, KM, PZA
[17] = read-out: In vitro MIC90, strain KZN11, RIF, SM, EMB
[18] = read-out: In vitro MIC90, strain KZN12, RIF, SM, EMB, ETH, KM, PZA
[19] = read-out: In vitro MIC90, strain KZN14, RIF, SM, EMB, ETH, KM, PZA
[20] = read-out: In vitro MIC90, strain KZN15, RIF, SM, EMB, ETH, KM, PZA
[21] = read-out: In vitro MIC90, strain KZN16, RIF, SM, EMB, ETH, KM, PZA
[22] = read-out: In vitro MIC90, strain V2475, RIF

CC[C@H](C)[C@H]1O[C@]2(CC[C@@H]1C)C[C@@H]1C[C@@H](C/C=C(\C)[C@@H](O[C@H]3C[C@H](OC)[C@@H](O[C@H]4C[C@H](OC)[C@@H](O)[C@H](C)O4)[C@H](C)O3)[C@@H](C)/C=C/C=C3\CO[C@@H]4[C@H](O)C(C)=C[C@@H](C(=O)O1)[C@]34O)O2 [Ivermectin]
In vitro MIC90 (strain BC-MDR2, RIF, PZA, SM, RBT): > 128 µg/mL | In vitro MIC90 (strain BC-MDR3, RIF, RBT): 1 to 2 µg/mL | In vitro MIC90 (strain BC-MDR4, RIF, EMB, PZA, RBT): 4 to 16 µg/mL | In vitro MIC90 (strain BC-MDR5, RIF, PZA, SM, PAS, RBT): 4 to 16 µg/mL | In vitro MIC90 (strain CI5058, RIF): 6 µg/mL | In vitro MIC90 (strain CI5072, RIF, SM): >24 µg/mL | In vitro MIC90 (strain CI5297): 6 µg/mL | In vitro MIC90 (strain CI5305): 3 µg/mL | In vitro MIC90 (strain CI5324, RIF): 6 µg/mL | In vitro MIC90 (strain CI5358, EMB, ETH): 3 µg/mL | In vitro MIC90 (strain CI5400, RIF): 3 µg/mL | In vitro MIC90 (strain CI5447): 1.5 µg/mL | In vitro MIC90 (strain CI5459, EMB, ETH): 3 µg/mL | In vitro MIC90 (strain CI12081, RIF, SM, EMB, ETH): >24 µg/mL | In vitro MIC90 (strain H37Rv mc^24977): 6 µg/mL | In vitro MIC90 (strain H37Rv mc^25857, RIF): 3 µg/mL | In vitro MIC90 (strain H37Rv mc^25858, RIF): 3 µg/mL | In vitro MIC90 (strain KZN5, RIF, SM, EMB, ETH, KM, PZA): 6 µg/mL | In vitro MIC90 (strain KZN6, RIF, SM, EMB, ETH, KM, PZA): 6 µg/mL | In vitro MIC90 (strain KZN11, RIF, SM, EMB): 3 µg/mL | In vitro MIC90 (strain KZN12, RIF, SM, EMB, ETH, KM, PZA): 3 µg/mL | In vitro MIC90 (strain KZN14, RIF, SM, EMB, ETH, KM, PZA): 6 to 12 µg/mL | In vitro MIC90 (strain KZN15, RIF, SM, EMB, ETH, KM, PZA): 6 µg/mL | In vitro MIC90 (strain KZN16, RIF, SM, EMB, ETH, KM, PZA): 3 µg/mL | In vitro MIC90 (strain V2475, RIF): 1.5 µg/mL

CO/N=C1\C[C@]2(C[C@@H]3C[C@@H](C/C=C(\C)C[C@@H](C)/C=C/C=C4\CO[C@@H]5[C@H](O)C(C)=C[C@@H](C(=O)O3)[C@]45O)O2)O[C@H](/C(C)=C/C(C)C)[C@H]1C [Moxidectin]
MIC90 [1]: 2 to 4 µg/mL (≈ 3.13 to 6.25 µM) | MIC90 [2]: 1 to 2 µg/mL (≈ 1.56 to 3.13 µM) | MIC90 [3]: 2 to 4 µg/mL (≈ 3.13 to 6.25 µM) | MIC90 [4]: 2 to 4 µg/mL (≈ 3.13 to 6.25 µM) | MIC90 [5]: 6 µg/mL (≈ 9.38 µM) | MIC90 [6]: 3 µg/mL (≈ 4.69 µM) | MIC90 [7]: 6 µg/mL (≈ 9.38 µM) | MIC90 [8]: 1.5 µg/mL (≈ 2.34 µM) | MIC90 [9]: 3 µg/mL (≈ 4.69 µM) | MIC90 [10]: 3 µg/mL (≈ 4.69 µM) | MIC90 [11]: 3 µg/mL (≈ 4.69 µM) | MIC90 [12]: 0.8 to 1.5 µg/mL (≈ 1.25 to 2.34 µM) | MIC90 [13]: 1.5 µg/mL (≈ 2.34 µM) | MIC90 [14]: 3 µg/mL (≈ 4.69 µM) | MIC90 [15]: 3 µg/mL (≈ 4.69 µM) | MIC90 [16]: 3 µg/mL (≈ 4.69 µM) | MIC90 [17]: 3 µg/mL (≈ 4.69 µM) | MIC90 [18]: 1.5 µg/mL (≈ 2.34 µM) | MIC90 [19]: 3 to 6 µg/mL (≈ 4.69 to 9.38 µM) | MIC90 [20]: 3 µg/mL (≈ 4.69 µM) | MIC90 [21]: 1.5 µg/mL (≈ 2.34 µM) | MIC90 [22]: 3 µg/mL (≈ 4.69 µM)

CO[C@H]1C[C@H](O[C@@H]2/C(C)=C/C[C@@H]3C[C@@H](C[C@]4(CC[C@H](C)[C@@H](C5CCCCC5)O4)O3)OC(=O)[C@@H]3C=C(C)/C(=N/O)[C@H]4OC/C(=C\C=C\[C@@H]2C)[C@]43O)O[C@@H](C)[C@@H]1O [Selamectin]
MIC90 [1]: 2 µg/mL (≈ 2.6 µM) | MIC90 [2]: 0.5 to 1 µg/mL (≈ 0.649 to 1.3 µM) | MIC90 [3]: 2 µg/mL (≈ 2.6 µM) | MIC90 [4]: 2 µg/mL (≈ 2.6 µM) | MIC90 [5]: 6 µg/mL (≈ 7.79 µM) | MIC90 [6]: 3 to 6 µg/mL (≈ 3.9 to 7.79 µM) | MIC90 [7]: 3 µg/mL (≈ 3.9 µM) | MIC90 [8]: 1.5 µg/mL (≈ 1.95 µM) | MIC90 [9]: 3 µg/mL (≈ 3.9 µM) | MIC90 [10]: 1.5 µg/mL (≈ 1.95 µM) | MIC90 [11]: 3 µg/mL (≈ 3.9 µM) | MIC90 [12]: 1.5 µg/mL (≈ 1.95 µM) | MIC90 [13]: 1.5 to 3 µg/mL (≈ 1.95 to 3.9 µM) | MIC90 [14]: 3 µg/mL (≈ 3.9 µM) | MIC90 [15]: 3 µg/mL (≈ 3.9 µM) | MIC90 [16]: 6 µg/mL (≈ 7.79 µM) | MIC90 [17]: 3 µg/mL (≈ 3.9 µM) | MIC90 [18]: 3 µg/mL (≈ 3.9 µM) | MIC90 [19]: 6 µg/mL (≈ 7.79 µM) | MIC90 [20]: 3 µg/mL (≈ 3.9 µM) | MIC90 [21]: 1.5 µg/mL (≈ 1.95 µM) | MIC90 [22]: 1.5 µg/mL (≈ 1.95 µM)
